These compounds were tested against ENPP1 (hENPP1-ECD-His) (Homo sapiens (Human), UniProt P22413).
ENPP1 (hENPP1-ECD-His), sequence (P22413 98-925): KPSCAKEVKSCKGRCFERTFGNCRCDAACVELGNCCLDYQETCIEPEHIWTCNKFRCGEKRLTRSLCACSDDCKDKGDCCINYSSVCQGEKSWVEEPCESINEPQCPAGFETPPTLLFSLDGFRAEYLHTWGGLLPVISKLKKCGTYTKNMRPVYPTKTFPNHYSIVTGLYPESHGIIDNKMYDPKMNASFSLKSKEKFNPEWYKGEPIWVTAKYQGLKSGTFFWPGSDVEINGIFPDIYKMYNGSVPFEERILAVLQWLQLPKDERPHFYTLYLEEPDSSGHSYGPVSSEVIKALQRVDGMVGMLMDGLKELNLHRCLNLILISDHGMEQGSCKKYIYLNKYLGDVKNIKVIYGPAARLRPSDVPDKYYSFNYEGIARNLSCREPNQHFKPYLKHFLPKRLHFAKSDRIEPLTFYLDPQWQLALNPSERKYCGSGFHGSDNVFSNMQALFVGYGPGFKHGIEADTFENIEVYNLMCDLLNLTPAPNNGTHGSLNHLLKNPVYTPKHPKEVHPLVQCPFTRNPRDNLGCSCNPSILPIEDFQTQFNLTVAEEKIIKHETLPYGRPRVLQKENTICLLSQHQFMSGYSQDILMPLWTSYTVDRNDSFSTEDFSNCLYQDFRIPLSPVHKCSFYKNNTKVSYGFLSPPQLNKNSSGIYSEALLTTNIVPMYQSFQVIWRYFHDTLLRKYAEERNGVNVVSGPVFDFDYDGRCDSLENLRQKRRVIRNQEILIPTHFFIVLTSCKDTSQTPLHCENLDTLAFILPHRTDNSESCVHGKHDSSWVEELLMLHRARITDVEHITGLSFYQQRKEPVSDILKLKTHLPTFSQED

**Q.** With `CCn1ncc2c(Oc3ccc(C(C)(C)C(=O)NO)cc3)ccnc21` [Compound 53] as the compound, how does the IC50 read?
**A.** The IC50 was 2.9 nM.

**Q.** For `Cc1cc(Oc2ccc(C(C)(C)C(=O)NO)cc2)c2cnn(C)c2n1` [Compound 58], which IC50 is on record?
**A.** Its IC50 is 41 nM.

**Q.** `COc1ccc2c(Nc3ccc(CC(=O)NO)nc3)ccnc2n1` [Compound 44] was tested. Which IC50 did it give?
**A.** Its IC50 is 2.7 nM.

**Q.** How did the IC50 turn out when `COc1ccc2c(Oc3ccc(C(C)C(=O)NO)cc3F)ccnc2n1` (stereo not shown) [Compound 72] was run?
**A.** The IC50 was 2.2 nM.

**Q.** With `Cn1c(=O)ccc2c(Nc3ccc(CC(=O)NO)cc3)ccnc21` [Compound 18, N-hydroxy-2-(4-((8-methyl-7-oxy-7,8-dihydro-1,8-naphthyridin-4-yl)amino)phenyl)acetamide] as the compound, how does the IC50 read?
**A.** Its IC50 is 343 nM.

**Q.** For `COc1ccc2c(Oc3ccc(CC(=O)NO)cc3)c(C#N)cnc2c1` [Compound 14], which IC50 is on record?
**A.** Its IC50 is 1.2 nM.

**Q.** `COc1ccc2c(Nc3cc(F)c(CC(=O)NO)cc3F)ccnc2n1` [Compound 52] was tested. Which IC50 did it give?
**A.** The IC50 was 2.2 nM.

**Q.** `CCn1ncc2c(Oc3cccc(C(=O)NO)c3)ccnc21` [Compound 76] was tested. Which IC50 did it give?
**A.** The IC50 was 289 nM.

**Q.** Which IC50 does the source give for `O=C(Cc1ccc(Nc2ncnc3ccccc23)cc1)NO` [Compound 16] here?
**A.** Its IC50 is 64 nM.

**Q.** With `O=C(Cc1ccc(Nc2ncnc3ncccc23)cc1)NO` [Compound 39] as the compound, how does the IC50 read?
**A.** Its IC50 is 205 nM.

**Q.** For `CCn1ncc2c(Nc3ccc(CC(=O)NO)c(Cl)c3)ccnc21` [Compound 77], which IC50 is on record?
**A.** Its IC50 is 1.2 nM.

**Q.** How did the IC50 turn out when `O=C(Cc1ccc(Nc2ncnc3nc(O)ccc23)cc1)NO` [Compound 31] was run?
**A.** The IC50 was 20 nM.

**Q.** How did the IC50 turn out when `COc1ccc2c(Nc3ccc(C(C)(C)C(=O)NO)cc3)cnnc2c1` [Compound 147] was run?
**A.** Its IC50 is 1.5 nM.

**Q.** `COc1ccc2c(Oc3ccc(C(C(=O)NO)C(C)C)c(F)c3)ccnc2n1` (stereo not shown) [Compound 150] was tested. Which IC50 did it give?
**A.** The IC50 was 7.2 nM.

**Q.** For `COc1ccc2c(Nc3ccc(C(C(=O)NO)C(C)C)cc3)ccnc2n1` (stereo not shown) [Compound 161], which IC50 is on record?
**A.** Its IC50 is 16 nM.

**Q.** How did the IC50 turn out when `CCn1ncc2c(Nc3ccc(CC(=O)NO)c(OC)c3)ccnc21` [Compound 56] was run?
**A.** Its IC50 is 2.3 nM.

**Q.** `CCn1ncc2c(Nc3ccc(CC(=O)NO)c(F)c3)ccnc21` [Compound 193] was tested. Which IC50 did it give?
**A.** The IC50 was 2.2 nM.

**Q.** Which IC50 does the source give for `COc1ccc2c(Oc3ccc(C(O)C(=O)NO)cc3)ccnc2n1` (stereo not shown) [Compound 38] here?
**A.** The IC50 was 4.4 nM.

**Q.** With `COc1ccc2c(Nc3ccc(C(C(=O)NO)C(C)C)c(F)c3)ccnc2n1` (stereo not shown) [Compound 160] as the compound, how does the IC50 read?
**A.** The IC50 was 15 nM.

**Q.** `COc1ccc2c(Oc3ccc(C4(C(=O)NO)CCOCC4)c(Cl)c3)ccnc2n1` [Compound 135] was tested. Which IC50 did it give?
**A.** Its IC50 is 7.1 nM.

**Q.** With `COc1ccc2c(Nc3ccc(CC(=O)NO)cc3)ccnc2c1` [Compound 4] as the compound, how does the IC50 read?
**A.** Its IC50 is 2.62 nM.

**Q.** `Cn1ncc2c(Nc3ccc(CC(=O)NO)cc3)ccnc21` [Compound 40] was tested. Which IC50 did it give?
**A.** Its IC50 is 4.8 nM.

**Q.** How did the IC50 turn out when `COc1ccc2c(Nc3ccc(C(C)C(=O)NO)c(F)c3)ccnc2n1` (stereo not shown) [Compound 61] was run?
**A.** The IC50 was 1.7 nM.

**Q.** Which IC50 does the source give for `COc1cc2ncnc(Nc3ccc(C(CC(C)C)C(=O)NO)cc3)c2cn1` (stereo not shown) [Compound 188] here?
**A.** Its IC50 is 4.6 nM.

**Q.** `CCn1ncc2c(Nc3ccc(CC(=O)NO)cc3)ccnc21` [Compound 49] was tested. Which IC50 did it give?
**A.** The IC50 was 1.4 nM.

**Q.** With `COc1ccc2c(NC3CCC(CC(=O)NO)C3)ccnc2n1` (stereo not shown) [Compound 142] as the compound, how does the IC50 read?
**A.** Its IC50 is 13 nM.

**Q.** For `CCn1ncc2c(Nc3ccc(CC(=O)NO)cc3F)ccnc21` [Compound 192], which IC50 is on record?
**A.** The IC50 was 1.4 nM.

**Q.** With `COc1cc2nccc(Oc3ccc(C(C)(C)C(=O)NO)cc3)c2cn1` [Compound 97] as the compound, how does the IC50 read?
**A.** Its IC50 is 1.5 nM.

**Q.** How did the IC50 turn out when `CCn1ncc2c(Nc3ccc(C4(C(=O)NO)CCOCC4)cc3)ccnc21` [Compound 163] was run?
**A.** Its IC50 is 2.9 nM.

**Q.** How did the IC50 turn out when `COc1cc2nccc(Nc3ccc(CC(=O)NO)cc3F)c2cn1` [Compound 190] was run?
**A.** The IC50 was 3.9 nM.

**Q.** For `Cn1ncc2c(Oc3ccc(C4(C(=O)NO)CCCC4)cc3)ccnc21` [Compound 129], which IC50 is on record?
**A.** The IC50 was 5.7 nM.

**Q.** Which IC50 does the source give for `CCn1nc(C)c2c(Nc3ccc(CC(=O)NO)cc3)ncnc21` [Compound 74] here?
**A.** The IC50 was 7.8 nM.

**Q.** How did the IC50 turn out when `COc1ccc2c(Oc3ccc(C4(C(=O)NO)CCOCC4)cc3F)ccnc2n1` [Compound 136] was run?
**A.** The IC50 was 4.4 nM.

**Q.** `COc1ccc2c(Oc3ccc4c(c3)CCCC4C(=O)NO)ccnc2n1` (stereo not shown) [Compound 145] was tested. Which IC50 did it give?
**A.** Its IC50 is 4.2 nM.

**Q.** `COc1ccc2c(Oc3ccc(CC(=O)NO)c(F)c3)ccnc2n1` [Compound 25] was tested. Which IC50 did it give?
**A.** Its IC50 is 1.9 nM.

**Q.** For `COc1ccc2c(Oc3ccc(CC(=O)NO)cc3)ncnc2c1` [Compound 8], which IC50 is on record?
**A.** Its IC50 is 2.17 nM.

**Q.** `COc1ccc2c(Oc3cccc(C(=O)NO)c3)ccnc2n1` [Compound 63] was tested. Which IC50 did it give?
**A.** The IC50 was 212 nM.

From patent publication US20240383893A1, “Hydroxamic Acid Compound Having ENPP1 Inhibitory Activity and Use Thereof” (Haihe Biopharma Co., Ltd., priority 2021, published 2024)
